The text below walks through data of patent US11254663B2 (BRISTOL-MYERS SQUIBB COMPANY, priority 2019, dated 2022).

pEC50: −log10 of the molar value.

Sequence of FXR (Q96RI1 262-486): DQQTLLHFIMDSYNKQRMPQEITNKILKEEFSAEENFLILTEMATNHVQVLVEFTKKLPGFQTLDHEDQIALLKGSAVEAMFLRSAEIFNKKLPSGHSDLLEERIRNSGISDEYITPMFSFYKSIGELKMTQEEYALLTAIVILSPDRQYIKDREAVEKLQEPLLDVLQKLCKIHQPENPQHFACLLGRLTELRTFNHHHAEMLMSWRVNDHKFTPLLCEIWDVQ

The first test addresses FXR (Homo sapiens (Human), UniProt Q96RI1). The test can be described thus: FXR EC50 (FXR agonist potency reported with each Example). In kind it is cell-based.
Settings: not given
Molecule `O=C(N(CC12CCC(c3noc(C(F)F)n3)(CC1)CC2)c1cccc(-c2nc(C3CC3)no2)c1)C12CC(F)(C1)C2` [Example 117, N-(3-(3-cyclopropyl-1,2,4-oxadiazol-5-yl)phenyl)-N-((4-(5-(difluoromethyl)-1,2,4-oxadiazol-3-yl)bicyclo[2.2.2]octan-1-yl)methyl)-3-fluorobicyclo[1.1.1]pentane-1-carboxamide] showed a pEC50 of 7.92.
As to `CC(N(C(=O)C12CC(F)(C1)C2)c1cccc(-c2cnc(C3CC3)o2)c1)C12CCC(c3nc(C4CC4)no3)(CC1)CC2` (single isomer, unassigned) [Example 216, N-(1-(4-(3-cyclopropyl-1,2,4-oxadiazol-5-yl)bicyclo[2.2.2]octan-1-yl)ethyl)-N-(3-(2-cyclopropyloxazol-5-yl)phenyl)-3-fluorobicyclo[1.1.1]pentane-1-carboxamide], the pEC50 was 6.29.
On the same count and under the same terms, in the case of `CCc1noc(-c2cccc(N(CC34CCC(c5nc(C6CC6)no5)(CC3)CC4)C(=O)[C@H]3C[C@](O)(C(F)(F)F)C3)c2)n1` [Example 5, (1s, 3s)-N-((4-(3-cyclopropyl-1,2,4-oxadiazol-5-yl)bicyclo[2.2.2]octan-1-yl)methyl)-N-(3-(3-ethyl-1,2,4-oxadiazol-5-yl)phenyl)-3-hydroxy-3-(trifluoromethyl)cyclobutane-1-carboxamide] it was 6.74; in that of `CCn1cc(-c2cccc(N(CC34CCC(c5nc(C6CC6)no5)(CC3)CC4)C(=O)C3CC(F)(F)C3)c2)oc1=O` [Example 81, N-((4-(3-cyclopropyl-1,2,4-oxadiazol-5-yl)bicyclo[2.2.2]octan-1-yl)methyl)-N-(3-(3-ethyl-2-oxo-2,3-dihydrooxazol-5-yl)phenyl)-3,3-difluorocyclobutane-1-carboxamide], 6.02.
Same read-out and setting: in the case of `N#CC1(c2ccc(C34CCC(CN(C(=O)C5CC(C(F)F)C5)c5cccc(-c6nc(C7CC7)no6)c5)(CC3)CO4)cc2)CC1` (stereo not shown) [Example 141, N-((1-(4-(1-Cyanocyclopropyl)phenyl)-2-oxabicyclo[2.2.2]octan-4-yl)methyl)-N-(3-(3-cyclopropyl-1,2,4-oxadiazol-5-yl)phenyl)-3-(difluoromethyl)cyclobutane-1-carboxamide] it was 6.19; in that of `COc1cccc(-c2cccc(N(CC34CCC(c5nc(C)no5)(CC3)CC4)C(=O)C3CC(F)(F)C3)c2)c1` [Example 220, 3,3-Difluoro-N-(3′-methoxy-[1,1′-biphenyl]-3-yl)-N-((4-(3-methyl-1,2,4-oxadiazol-5-yl)bicyclo[2.2.2]octan-1-yl)methyl)cyclobutane-1-carboxamide], 6.26; in that of `O=C(N(CC12CCC(c3nc(CC4CC4)no3)(CC1)CC2)c1cccc(-c2nc(C3CC3)no2)c1)C12CC(F)(C1)C2` [Example 68, N-(3-(3-cyclopropyl-1,2,4-oxadiazol-5-yl)phenyl)-N-((4-(3-(cyclopropylmethyl)-1,2,4-oxadiazol-5-yl)bicyclo[2.2.2]octan-1-yl)methyl)-3-fluorobicyclo[1.1.1]pentane-1-carboxamide], 6.96.
Same read-out and setting: in the case of `O=C(N(CC12CCC(c3nc(C4CC4)no3)(CC1)CC2)c1cccc(-c2nc(CC3CC3)no2)c1)C12CC(F)(C1)C2` [Example 65, N-((4-(3-cyclopropyl-1,2,4-oxadiazol-5-yl)bicyclo[2.2.2]octan-1-yl)methyl)-N-(3-(3-(cyclopropylmethyl)-1,2,4-oxadiazol-5-yl)phenyl)-3-fluorobicyclo[1.1.1]pentane-1-carboxamide] it was 6.85; in that of `Cn1nc(-c2cccc(N(CC34CCC(c5nc(C6CC6)no5)(CC3)CC4)C(=O)C3CC(F)(F)C3)c2)cc1C1CC1` [Example 76, N-((4-(3-cyclopropyl-1,2,4-oxadiazol-5-yl)bicyclo[2.2.2]octan-1-yl)methyl)-N-(3-(5-cyclopropyl-1-methyl-1H-pyrazol-3-yl)phenyl)-3,3-difluorocyclobutane-1-carboxamide], 6.21; in that of `O=C(C1CC(C(F)F)C1)N(CC12CCC(c3nc(C4CC4)no3)(CC1)CC2)c1cccc(-c2cc(C3CC3)on2)c1` (stereo not shown) [Example 58, N-((4-(3-cyclopropyl-1,2,4-oxadiazol-5-yl)bicyclo[2.2.2]octan-1-yl)methyl)-N-(3-(5-cyclopropylisoxazol-3-yl)phenyl)-3-(difluoromethyl)cyclobutane-1-carboxamide], 7.41.
In turn, `Cn1nc(C23CCC(CN(C(=O)C45CC(F)(C4)C5)c4cccc(-c5noc(C(C)(C)C)n5)c4)(CC2)CC3)cc1C1CC1` [Example 167, N-(3-(5-(tert-butyl)-1,2,4-oxadiazol-3-yl)phenyl)-N-((4-(5-cyclopropyl-1-methyl-1H-pyrazol-3-yl)bicyclo[2.2.2]octan-1-yl)methyl)-3-fluorobicyclo[1.1.1]pentane-1-carboxamide] gave a pEC50 of 7.16.
Still for that read-out and setting: as for `COc1cccc(-c2cccc(N(CC34CCC(c5nc(C)no5)(CC3)CC4)C(=O)C34CC(F)(C3)C4)c2)c1` [Example 221, 3-fluoro-N-(3′-methoxy-[1,1′-biphenyl]-3-yl)-N-((4-(3-methyl-1,2,4-oxadiazol-5-yl)bicyclo[2.2.2]octan-1-yl)methyl)bicyclo[1.1.1]pentane-1-carboxamide], the figure is 6.30; as for `O=C(C1CCC1)N(CC12CCC(c3nc(C4CC4)no3)(CC1)CC2)c1cccc(-c2nc(CC3CC3)no2)c1` [Example 66, N-((4-(3-cyclopropyl-1,2,4-oxadiazol-5-yl)bicyclo[2.2.2]octan-1-yl)methyl)-N-(3-(3-(cyclopropylmethyl)-1,2,4-oxadiazol-5-yl)phenyl)cyclobutanecarboxamide], 6.52.

Tested on in another test: not given
Assay: not given
Conditions: patients with NASH, 72-week clinical trial; cited from earlier work.
As to `CC[C@H]1[C@@H](O)[C@@H]2[C@H](CC[C@]3(C)[C@@H]([C@H](C)CCC(=O)O)CC[C@@H]23)[C@@]2(C)CC[C@@H](O)C[C@@H]12` [OCA, obeticholic acid], the “hepatic steatosis, lobular inflammation, hepatocyte ballooning, and fibrosis as assessed by histological analyses of liver biopsies” value was “statistically significantly improved hepatic steatosis, lobular inflammation, hepatocyte ballooning, and fibrosis”.

Tested on in the next test: not given
Assay: not given
Conditions: T2DM patients with NAFLD, 6-week clinical trial; cited from earlier work.
For `CC[C@H]1[C@@H](O)[C@@H]2[C@H](CC[C@]3(C)[C@@H]([C@H](C)CCC(=O)O)CC[C@@H]23)[C@@]2(C)CC[C@@H](O)C[C@@H]12` [OCA, obeticholic acid], the body weight entry was “reduced body weight” and the insulin sensitivity entry was “statistically significantly improved insulin sensitivity”.
